Earlier results, collected in publication PMC5036784 (Biophysics, 2011).
Where two headings read alike, the source gives them in different places.

Settings: for rate constant of membrane binding kFB / rate constant of membrane dissociation kBF: 19F NMR; for time span of the binding and dissociation: timescale

Compound: Oc1ccc(C(c2ccc(O)cc2)(C(F)(F)F)C(F)(F)F)cc1 [FBPA, fluorinated bisphenol A]
- rate constant of membrane binding kFB (303K, ref [4]): 22 to 280 s⁻¹
- rate constant of membrane dissociation kBF (303K, ref [4]): 68 to 107 s⁻¹
- binding free energy ΔG (ref [4]): -4.78 kcal/mol
- time span of the binding and dissociation (ref [4]): 10^−3–10^−2 s

Compound: O=c1[nH]cc(F)c(=O)[nH]1 [5FU, 5-fluoro-1H-pyrimidine-2,4-dione]
- rate constant of membrane binding kFB (ref [3]): 0.2 s⁻¹
- rate constant of membrane dissociation kBF (ref [3]): 4.1 s⁻¹
- time span of the binding and dissociation (ref [3]): 10^−1–10^0 s
